# Experimental data from PubChem BioAssay AID1996.
# Details: buffer; pH 7.4; 200.0 µM
row,SMILES,solubility kinetic
1,COc1ccc2cc(C(=O)N3CCN(c4ccccc4OC)CC3)[nH]c2c1,2.9 µg/mL
2,Cc1ccc(NC(=O)C2CCCN(c3cnccn3)C2)c(C)c1 (stereo not given),> 46.6 µg/mL
3,O=C(CNCc1cccc2ccccc12)Nc1ccccc1[N+](=O)[O-],5.4 µg/mL
4,Cc1ccc(NC(=O)CN(C)C(=O)C2CCC2)cc1,> 39.1 µg/mL
5,CCc1ccccc1S(=O)(=O)c1c(C)cc(C)nc1Cl,24.3 µg/mL
6,CCNC(=O)CN1C(=O)NC2(CCOc3ccccc32)C1=O (stereo not given),> 45.5 µg/mL
7,CCOc1ccc(-c2nc3scc(-c4cccs4)c3c(=O)[nH]2)cc1,< 0.4 µg/mL
8,C=CCn1cccc(C(=O)Nc2ccc(N(C)C)cc2)c1=O,> 44.6 µg/mL
9,O=C(CN1C(=O)CNC1=O)Nc1cc(Cl)cc(Cl)c1,> 45.3 µg/mL
10,CC1CC(C)CN(CC(=O)c2c[nH]c3ccccc23)C1 (stereo not given),37.8 µg/mL
11,CCN(c1ccccc1)S(=O)(=O)c1ccc(Cl)c(C(=O)O)c1,> 51 µg/mL
12,Cl.O=C(NCC(c1ccc(F)cc1)N1CCOCC1)c1ccc([N+](=O)[O-])o1 (stereo not given),> 60 µg/mL
13,COc1ccc(NS(=O)(=O)c2cc(NC(=O)COc3ccc(OC)cc3)ccc2N2CCOCC2)cc1,3.4 µg/mL
14,Cc1csc(NC(=O)CCCNC(=O)c2ccc(Cl)cc2)n1,10.2 µg/mL
15,Cc1ccc(NC2CCCN(C(=O)c3cccs3)C2)cc1C (stereo not given),47.1 µg/mL
16,CCC(=O)Nc1ccccc1-c1nc2ccccc2[nH]c1=O,> 44 µg/mL
17,Cc1ccsc1C(=O)NCCc1nnc2ccccn12,> 43 µg/mL
18,COc1ccc(C(=O)C[N+]2(C)CCOCC2)cc1.[I-],> 37.5 µg/mL
19,Cc1cc(C)cc(N=Cc2c(O)c3ccccc3oc2=O)c1,< 0.6 µg/mL
20,COc1cc(C)ccc1Oc1nc(-c2ccccc2O)nc2ccccc12,< 0.4 µg/mL
21,NS(=O)(=O)c1cnccc1NCCc1ccccc1,40.3 µg/mL
22,Cc1nnc(SCC(=O)Nc2nccs2)o1,> 38.4 µg/mL
23,CCOC(=O)NC(C)N1C(=O)C2C3C=CC(C3)C2C1=O (stereo not given),> 41.7 µg/mL
24,O=C(COC(=O)C1=COCCO1)Nc1cc(Cl)c(Cl)cc1Cl,5.3 µg/mL

row,SMILES,solubility kinetic
1,CC(=O)NC(c1ccc(Cl)cc1Cl)c1ccc2cccnc2c1O (stereo not given),3 µg/mL
2,CCOP(=O)(OCC)C(NC(=O)Nc1ccc(C)cc1)C(N)=O (stereo not given),> 51.5 µg/mL
3,Cc1ccc(C(=O)OCC(=O)N(C)c2ccccc2)cc1C,41.4 µg/mL
4,O=C(Oc1ccc(Cl)cc1)N1CCOCC1,> 36.3 µg/mL
5,Cc1ccc(N(C)S(=O)(=O)c2cccc(C(=O)N3CCN(Cc4ccccc4)CC3)c2)cc1,23 µg/mL
6,CN1C(=O)c2ccc(C(=O)Nc3cccnc3)cc2C1=O,> 42.2 µg/mL
7,CCOC(=O)C1CCN(C(=O)c2cc3cc(C)ccc3[nH]2)CC1,37 µg/mL
8,Cc1ccccc1NC(=O)CCN1CCN(CCO)CC1,42.4 µg/mL
9,Clc1ccc(/C=C/c2ncc[nH]2)c(Cl)c1,7.7 µg/mL
10,COc1ccc(CNC(=O)C2(CC(=O)NC(C)(C)C)CCCC2)cc1,> 52 µg/mL
11,CN1CCN(CC#CCC(O)(c2ccccc2)c2ccccc2)CC1.Cl,> 55.6 µg/mL
12,O=C(COc1cccnc1[N+](=O)[O-])NCc1cccs1,> 44 µg/mL
13,O=C(NCCc1ccc(F)cc1)NC12CC3CC(CC(C3)C1)C2,6.5 µg/mL
14,O=C(c1ccncc1)N1CCN(CCc2ccccc2)CC1,> 44.3 µg/mL
15,CCOCCCN1CC(C(=O)NCc2ccc3c(c2)OCO3)CC1=O (stereo not given),> 52.3 µg/mL
16,COc1cc(S(=O)(=O)NC2CCCCC2C)ccc1F (stereo not given),> 45.2 µg/mL
17,O=C1N(CCCl)c2ccc(Br)cc2C12OCCO2,48.1 µg/mL
18,Cc1[nH]c2ccccc2c(=O)c1C(=O)/C=C/c1ccccc1,35.8 µg/mL
19,COc1ccccc1Cn1c(=O)oc2ccc(C)cc21,2.9 µg/mL
20,CC(C)CC(=O)Nc1ncc([N+](=O)[O-])s1,> 34.4 µg/mL
21,O=C(COc1ccccc1)NCCc1cnc[nH]1,> 36.8 µg/mL
22,Fc1cccc(NC(=S)NCc2ccccc2Cl)c1,1.6 µg/mL
23,O=C(CC(Nc1ccc(Cl)cc1Cl)C(=O)O)c1ccccc1 (stereo not given),50 µg/mL
24,COc1cc(C(=O)OCC(=O)NC2CC2)ccc1OCCC(C)C,6.8 µg/mL

row,SMILES,solubility kinetic
1,COC(=O)c1cccc(Nc2ccc([N+](=O)[O-])cn2)c1,0.3 µg/mL
2,NC(=O)CCN1CCCCC1,> 23.4 µg/mL
3,Cc1cc(C)c(S(=O)(=O)NCC(=O)NCc2ccco2)c(C)c1,44.2 µg/mL
4,COc1ccccc1NC(=S)N1CCCCCC1,> 39.7 µg/mL
5,CN(C)C=NC(=O)c1cc(C(=O)c2ccc(F)cc2)c[nH]1,> 43.1 µg/mL
6,O=C(CN1C(=O)C2(OCCO2)c2cc(Br)ccc21)NO,46.7 µg/mL
7,COc1ccc(CN2CN(C3CCCC3)CSC2=S)cc1,0.8 µg/mL
8,Cc1c(C)n(O)c2ccc3nonc3c12,> 30.5 µg/mL
9,O=C(O)c1cccc(NC2=Nc3cccc4cccc2c34)c1,36.7 µg/mL
10,Cc1cc(NC(=O)COC(=O)/C=C/c2ccc(C)o2)no1,1.8 µg/mL
11,CCN(C(=O)COC(=O)C1=COCCO1)c1ccccc1,> 43.7 µg/mL
12,COC(=O)c1sccc1NC(=O)Nc1ccc(C(C)=O)cc1,8.4 µg/mL
13,COc1ccc(CCNC(=S)NCCc2ccc(OC)c(OC)c2)cc1OC,> 60.7 µg/mL
14,CSc1ccccc1NC(=O)CN1CCCCC1,35.8 µg/mL
15,NC(=O)CSc1nc(C2CC2)nc2sc3c(c12)CCCC3,< 0.2 µg/mL
16,Cc1ccc(NC(=O)Nc2cc(C)on2)cc1,12.8 µg/mL
17,O=C(Nc1nc2ccsc2c(=O)s1)c1ccc(F)cc1,< 0.3 µg/mL
18,CC1(C)OC2C(O1)[C@@H](CO)O[C@H]2n1cnc2c(N)ncnc21 (stereo not given in full),> 46.1 µg/mL
19,COc1ccc(N2CCN(c3nccs3)CC2)cc1,> 41.3 µg/mL
20,COc1ccc(C(=O)Nc2ccc(S(=O)(=O)N3CCOCC3)cc2)cc1,2.9 µg/mL
21,Cc1nn(-c2ccccc2)c(-c2ccccc2[N+](=O)[O-])c1C(=O)O,> 48.5 µg/mL
22,O=C(COC(=O)CCC(=O)c1cccs1)NCc1ccccc1,45.6 µg/mL
23,CC(=O)c1cc(N2CCOCC2)ccc1[N+](=O)[O-],> 37.5 µg/mL
24,COc1ccc(OC)c(NC(=O)CCN2CCN(C)CC2)c1.Cl,44.2 µg/mL

row,SMILES,solubility kinetic
1,C=CCn1c(O)c(C(CC)=NCc2ccc3c(c2)OCO3)c(=O)[nH]c1=O,3 µg/mL
2,Cc1cc(NC(=O)c2ccc(Cl)c([N+](=O)[O-])c2)no1,0.8 µg/mL
3,COc1c(C)cc(C(=O)C2CCCN(C(=O)/C=C/c3ccccn3)C2)cc1C (stereo not given),40.6 µg/mL
4,COc1ccc(NC(=O)C2Cc3ccccc3O/C2=N\O)cc1 (stereo not given),10.2 µg/mL
5,O=C(Cn1cc(C(=O)C2CC2)c2ccccc21)Nc1ccccc1Cl,< 0.4 µg/mL
6,CN1CCC(NC(=S)NC2CC2)CC1,> 32 µg/mL
7,c1ccc(N2CCN(CC3CCCCC3)CC2)cc1,17 µg/mL
8,Cl.NCCCCNCCCN,16.4 µg/mL
9,CC1CN(C(=O)c2cc3cc([N+](=O)[O-])ccc3s2)CC(C)O1 (stereo not given),18.5 µg/mL
10,COCCNC(=O)Cn1nc(-c2ccc(C)cc2)ccc1=O,> 45.2 µg/mL
11,C/C(Nc1ccccc1C(F)(F)F)=C1/CCOC1=O,18.7 µg/mL
12,O=C(NCc1ccc(F)cc1)c1ccc[nH]1,> 32.7 µg/mL
13,O=C(CCNC(=O)c1ccccc1Cl)Nc1nc2ccccc2[nH]1,4.9 µg/mL
14,Cc1ccc(CNCc2ccc3c(c2)OCO3)cc1,32.5 µg/mL
15,COc1ccc(NC(=O)Nc2nc(C)cc(C)n2)c(OC)c1,> 45.3 µg/mL
16,COc1cc2[nH]c(=S)nc(NCc3cccnc3)c2cc1OC,12.2 µg/mL
17,COc1ccc(CNC(=S)NCc2ccc(F)cc2)cc1OC,> 50.2 µg/mL
18,O=C(c1cc2cccc([N+](=O)[O-])c2oc1=O)N1CCOCC1,40.6 µg/mL
19,Cc1ccccc1Nc1nc(N)nc(CCl)n1,> 37.5 µg/mL
20,CC1CCCN(CC(=O)c2ccc(Cl)c(Cl)c2)C1 (stereo not given),26 µg/mL
21,COc1ccc(C(=O)NC(=S)N2CC(C)OC(C)C2)cc1OC (stereo not given),> 50.8 µg/mL
22,NC(=O)CSc1nccn1Cc1ccc2c(c1)OCO2,> 43.7 µg/mL
23,COc1cc(NC(=S)N(C)CCC#N)c(OC)cc1Cl,38.9 µg/mL
24,O=C(NC(=S)Nc1ccccc1N1CCCC1)c1cccs1,3.2 µg/mL

row,SMILES,solubility kinetic
1,Cn1cnc2cc(NCc3ccc(Cl)cc3)ccc21,> 40.8 µg/mL
2,O=C(NCCC(=O)N1CCN(c2ccccn2)CC1)c1ccc([N+](=O)[O-])cc1,> 57.5 µg/mL
3,COc1ccc(Nc2c(-c3ccco3)nc3ccc(C)cn23)cc1,0.5 µg/mL
4,COc1ccc(OC)c(S(=O)(=O)NCCc2csc(-c3cccnc3)n2)c1,59 µg/mL
5,O=CN1CCN(C(=O)c2cccc([N+](=O)[O-])c2)CC1,> 39.5 µg/mL
6,COc1cc(NC(=O)CCN2CCOCC2)cc(OC)c1,> 44.2 µg/mL
7,COc1cc(OC)cc(C(=O)NC2CCSc3ccccc32)c1 (stereo not given),3.9 µg/mL
8,COc1ccc(N2C(=O)[C@@H]3C(c4cccnc4)=NO[C@@H]3C2=O)cc1,45 µg/mL
9,Cc1cccc(C(=O)N[C@H](C(=O)Nc2ccc(C)c(S(=O)(=O)N3CCOCC3)c2)C(C)C)c1,5.4 µg/mL
10,CC(C)(CC(=O)O)CC(=O)NCc1c(Cl)cccc1Oc1ccccc1,> 56.4 µg/mL
11,CN1CCN(S(=O)(=O)c2ccc([N+](=O)[O-])cc2)CC1,> 42.8 µg/mL
12,Cc1cc(Cl)cc(C)c1OCCCCCn1ccnc1,30.7 µg/mL
13,COc1cc(C(C)=O)ccc1OCC(=O)NC(=O)Nc1ccc(C)cc1C,14.1 µg/mL
14,Cc1ccc(-c2ocnc2C(=O)Nc2nc(C)cs2)cc1,1.1 µg/mL
15,CCOc1cccc(Nc2ccc([N+](=O)[O-])cn2)c1,2.4 µg/mL
16,COc1ccc(CNC(=O)COC(=O)c2cccs2)cc1,29.1 µg/mL
17,Cn1c(NC(=O)c2ccccc2)nc2ccccc21,13 µg/mL
18,Fc1ccc(NC(=S)NCc2ccccc2)cc1,> 39 µg/mL
19,S=C(NCCN1CCOCC1)NC1CCCCC1,38.5 µg/mL
20,CC(C)(C)c1ccc(C(=O)NCC(=O)N2CCCC2)cc1,> 43.3 µg/mL
21,COCCN(CC(=O)Nc1cccc(C)c1C)C(=O)Cc1ccsc1,> 54.1 µg/mL
22,CC1=CCC(C(=O)O)C(C(=O)Nc2ccc(-c3nc4ccc(C)cc4s3)cc2)C1 (stereo not given),> 61 µg/mL
23,COc1cccc(OC)c1OC(=O)c1cnccn1,< 0.3 µg/mL
24,O=C(Cc1ccc(Cl)cc1)NC1CCS(=O)(=O)C1 (stereo not given),> 43.2 µg/mL
